Where “and” joins values, the source holds several entries; their conditions need not be identical. Identical values can stand only once. Toxic doses and inconclusive results are not listed.
System: P388 leukemia ip, CD2F1 mice, survival T/C
Assay: NCI In Vivo Anticancer Drug Screen. Data for tumor model P388 Leukemia (intraperitoneal) in CD2F1 (CDF1) mice
Details: endpoint: median survival time, higher = longer survival
In short: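 Mice carrying the transplanted tumor received test compound or vehicle. Survival was recorded in each group, and the value is the treated-group measurement divided by that of the vehicle-treated control group.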

[1] = dose: 60.0 mg/kg/injection, schedule: Q01DX005 (ip), vehicle: saline with Tween-80
[2] = dose: 120.0 mg/kg/injection, schedule: Q01DX005 (ip), vehicle: saline with Tween-80
[3] = dose: 240.0 mg/kg/injection, schedule: Q01DX005 (ip), vehicle: saline with Tween-80
[4] = dose: 100.0 mg/kg/injection, schedule: Q04DX003 (ip), vehicle: saline with Tween-80
[5] = dose: 12.5 mg/kg/injection, schedule: Q01DX005 (ip), vehicle: Klucel (hydroxypropylcellulose) (HPC)
[6] = dose: 25.0 mg/kg/injection, schedule: Q01DX005 (ip), vehicle: Klucel (hydroxypropylcellulose) (HPC)
[7] = dose: 50.0 mg/kg/injection, schedule: Q01DX005 (ip), vehicle: Klucel (hydroxypropylcellulose) (HPC)
[8] = dose: 12.5 mg/kg/injection, schedule: Q01DX005 (ip), vehicle: saline with Tween-80
[9] = dose: 25.0 mg/kg/injection, schedule: Q01DX005 (ip), vehicle: saline with Tween-80
[10] = dose: 50.0 mg/kg/injection, schedule: Q01DX005 (ip), vehicle: saline with Tween-80
[11] = dose: 100.0 mg/kg/injection, schedule: Q04DX002 (ip), vehicle: saline with Tween-80
[12] = dose: 100.0 mg/kg/injection, schedule: Q01DX005 (ip), vehicle: Klucel (hydroxypropylcellulose) (HPC)
[13] = dose: 100.0 mg/kg/injection, schedule: Q01DX005 (ip), vehicle: saline with Tween-80
[14] = dose: 50.0 mg/kg/injection, schedule: Q01DX009 (ip), vehicle: saline with Tween-80
[15] = dose: 100.0 mg/kg/injection, schedule: Q01DX009 (ip), vehicle: saline with Tween-80
[16] = dose: 12.5 mg/kg/injection, schedule: Q01DX009 (ip), vehicle: water

Compound: CC1C(=O)OC(C(Cl)(Cl)Cl)N1C (configuration not stated)
- T/C [1]: 97 % of control
- T/C [2]: 97 % of control
- T/C [3]: 94 % of control

Compound: O=C1C(Cl)=C(NCCCC2CCCN3CCCCC23)C(=O)c2ccccc21 (configuration not stated)
- T/C (dose: 25.0 mg/kg/injection, schedule: Q04DX002 (ip), vehicle: Klucel (hydroxypropylcellulose) (HPC)): 100 % of control
- T/C (dose: 50.0 mg/kg/injection, schedule: Q04DX002 (ip), vehicle: Klucel (hydroxypropylcellulose) (HPC)): 101 % of control
- T/C (dose: 100.0 mg/kg/injection, schedule: Q04DX002 (ip), vehicle: Klucel (hydroxypropylcellulose) (HPC)): 114 % of control and 94 % of control

Compound: CC(C)=C/C(C)=N/Nc1ccc([N+](=O)[O-])cc1[N+](=O)[O-]
- T/C (dose: 25.0 mg/kg/injection, schedule: Q04DX003 (ip), vehicle: saline with Tween-80): 100 % of control
- T/C (dose: 50.0 mg/kg/injection, schedule: Q04DX003 (ip), vehicle: saline with Tween-80): 100 % of control
- T/C [4]: 100 % of control

Compound: [Cl][Zn][Cl].c1ccc2[nH]cnc2c1.c1ccc2[nH]cnc2c1
- T/C [5]: 100 % of control
- T/C [6]: 108 % of control
- T/C [7]: 100 % of control

Compound: CN(C)c1ccc(C(=C(c2ccc(N(C)C)cc2)c2ccc(N(C)C)cc2)c2ccc(N(C)C)cc2)cc1
- T/C [8]: 96 % of control
- T/C [9]: 92 % of control
- T/C [10]: 89 % of control

Compound: C1CSCCSCCCSCCSCCCSCCSC1
- T/C (dose: 100.0 mg/kg/injection, schedule: Q01DX001 (ip), vehicle: Klucel (hydroxypropylcellulose) (HPC)): 97 % of control
- T/C (dose: 200.0 mg/kg/injection, schedule: Q01DX001 (ip), vehicle: Klucel (hydroxypropylcellulose) (HPC)): 105 % of control
- T/C (dose: 400.0 mg/kg/injection, schedule: Q01DX001 (ip), vehicle: Klucel (hydroxypropylcellulose) (HPC)): 97 % of control

Compound: CN=C(N)NN=C(c1ccccc1)c1ccccc1
- T/C (dose: 25.0 mg/kg/injection, schedule: Q04DX002 (ip), vehicle: saline with Tween-80): 104 % of control
- T/C (dose: 50.0 mg/kg/injection, schedule: Q04DX002 (ip), vehicle: saline with Tween-80): 109 % of control
- T/C [11]: 110 % of control

Compound: Cn1ncc2c(NCCc3ccccc3)ncnc21
- T/C [4]: 109 % of control

Compound: O=C1c2ccccc2S(=O)(=O)CC12OC2c1ccc(Cl)cc1 (configuration not stated)
- T/C [11]: 88 % of control
- T/C (dose: 200.0 mg/kg/injection, schedule: Q04DX002 (ip), vehicle: saline with Tween-80): 88 % of control
- T/C (dose: 400.0 mg/kg/injection, schedule: Q04DX002 (ip), vehicle: saline with Tween-80): 94 % of control

Compound: Cn1c(=O)oc2cc(NC(N)=O)c(Cl)cc21
- T/C [7]: 94 % of control
- T/C [12]: 90 % of control
- T/C (dose: 200.0 mg/kg/injection, schedule: Q01DX005 (ip), vehicle: Klucel (hydroxypropylcellulose) (HPC)): 86 % of control

Compound: C/C(C#N)=C1/Nc2ccccc2NC1=O
- T/C (dose: 25.0 mg/kg/injection, schedule: Q01DX009 (ip), vehicle: distilled water + Tween-80 + alcohol): 95 % of control
- T/C (dose: 50.0 mg/kg/injection, schedule: Q01DX009 (ip), vehicle: distilled water + Tween-80 + alcohol): 88 % of control and 92 % of control
- T/C (dose: 100.0 mg/kg/injection, schedule: Q01DX009 (ip), vehicle: distilled water + Tween-80 + alcohol): 91 % of control
- T/C (dose: 200.0 mg/kg/injection, schedule: Q01DX009 (ip), vehicle: distilled water + Tween-80 + alcohol): 100 % of control

Compound: O=C(O)CCC(=O)C(Cc1ccccc1)NC(=O)c1ccccc1 (configuration not stated)
- T/C [10]: 94 % of control
- T/C [1]: 91 % of control
- T/C [13]: 89 % of control
- T/C [2]: 100 % of control
- T/C (dose: 200.0 mg/kg/injection, schedule: Q01DX005 (ip), vehicle: saline with Tween-80): 100 % of control
- T/C [3]: 98 % of control

Compound: CC(=O)NC(C=O)C(OC(C)C(=O)NC(C)C(=O)NC(CCC(N)=O)C(=O)O)C(OC1OC(CO)C(O)C(O)C1NC(C)=O)C(O)CO (configuration not stated)
- T/C (dose: 6.25 mg/kg/injection, schedule: Q01DX005 (ip), vehicle: saline): 111 % of control
- T/C (dose: 12.5 mg/kg/injection, schedule: Q01DX005 (ip), vehicle: saline): 112 % of control
- T/C (dose: 25.0 mg/kg/injection, schedule: Q01DX005 (ip), vehicle: saline): 112 % of control
- T/C (dose: 50.0 mg/kg/injection, schedule: Q01DX005 (ip), vehicle: saline): 116 % of control

Compound: c1ccc(-c2nc3ccccc3nc2-c2ccc(-c3nc4ccccc4nc3-c3ccccc3)cc2)cc1
- T/C (dose: 6.25 mg/kg/injection, schedule: Q01DX009 (ip), vehicle: saline with Tween-80): 112 % of control
- T/C (dose: 12.5 mg/kg/injection, schedule: Q01DX009 (ip), vehicle: saline with Tween-80): 90 % of control

Compound: C/C=C\C(C)=C/C(C)C(=O)CC(O)CC1CC(=O)NC(=O)C1 (configuration not stated)
- T/C (dose: 1.56 mg/kg/injection, schedule: Q01DX009 (ip), vehicle: DMSO): 91 % of control
- T/C (dose: 3.12 mg/kg/injection, schedule: Q01DX009 (ip), vehicle: DMSO): 98 % of control
- T/C (dose: 6.25 mg/kg/injection, schedule: Q01DX009 (ip), vehicle: DMSO): 93 % of control
- T/C (dose: 12.5 mg/kg/injection, schedule: Q01DX009 (ip), vehicle: DMSO): 100 % of control
- T/C (dose: 25.0 mg/kg/injection, schedule: Q01DX009 (ip), vehicle: DMSO): 107 % of control

Compound: CN1C(=O)CC(Sc2ccccc2)c2cc(Cl)ccc21 (configuration not stated)
- T/C (dose: 25.0 mg/kg/injection, schedule: Q01DX009 (ip), vehicle: saline with Tween-80): 99 % of control
- T/C [14]: 100 % of control
- T/C [15]: 97 % of control

Compound: CCCNc1ccnc(F)n1
- T/C [5]: 100 % of control
- T/C [6]: 102 % of control
- T/C [7]: 106 % of control
- T/C [12]: 105 % of control

Compound: O=C(NC1CCCCC1)OCC1OC(n2cnc3c(=O)[nH]cnc32)C(OC(=O)NC2CCCCC2)C1OC(=O)NC1CCCCC1 (configuration not stated)
- T/C (dose: 6.25 mg/kg/injection, schedule: Q01DX005 (ip), vehicle: saline with Tween-80): 98 % of control
- T/C [8]: 90 % of control
- T/C [9]: 90 % of control

Compound: O=C(OCC1CC=CCC1CCl)c1ccccc1 (configuration not stated)
- T/C [14]: 96 % of control
- T/C [15]: 99 % of control
- T/C (dose: 200.0 mg/kg/injection, schedule: Q01DX009 (ip), vehicle: saline with Tween-80): 99 % of control

Compound: O=S(=O)(CCNCCCCC1CCCCC1)SCCNCCCCC1CCCCC1
- T/C (dose: 6.25 mg/kg/injection, schedule: Q01DX005 (ip), vehicle: Klucel (hydroxypropylcellulose) (HPC)): 100 % of control
- T/C [5]: 101 % of control
- T/C [6]: 95 % of control

Compound: COc1cccc2c1C(=O)c1c(O)c3c(c(O)c1C2=O)C[C@@](O)(c1csc(N2CCN(C)CC2)n1)C[C@@H]3OC1CC(N)C(O)C(C)O1 (some centres not stated)
- T/C (dose: 0.39 mg/kg/injection, schedule: Q01DX009 (ip), vehicle: water): 113 % of control
- T/C (dose: 0.78 mg/kg/injection, schedule: Q01DX009 (ip), vehicle: water): 122 % of control
- T/C (dose: 1.56 mg/kg/injection, schedule: Q01DX009 (ip), vehicle: water): 155 % of control
- T/C (dose: 3.13 mg/kg/injection, schedule: Q01DX009 (ip), vehicle: water): 158 % of control
- T/C [16]: 122 % of control

Compound: Nc1cccc2ccccc12
- T/C [4]: 94 % of control

Compound: COC1=CC(=O)C(C2(OC(C)C)OC(=O)C(Cl)=C2Cl)=CC1=O (configuration not stated)
- T/C [10]: 119 % of control
- T/C [13]: 111 % of control

Compound: C[S+](C)CC[N+](C)(C)C
- T/C [16]: 104 % of control
- T/C (dose: 25.0 mg/kg/injection, schedule: Q01DX009 (ip), vehicle: water): 108 % of control
- T/C (dose: 50.0 mg/kg/injection, schedule: Q01DX009 (ip), vehicle: water): 110 % of control

Compound: CCOC(=O)c1ccc(NC(=O)CSc2nc3ccccc3o2)cc1
- T/C (dose: 50.0 mg/kg/injection, schedule: Q01DX009 (ip), vehicle: saline): 114 % of control
- T/C (dose: 100.0 mg/kg/injection, schedule: Q01DX009 (ip), vehicle: saline): 93 % of control

Compound: c1ccc(-c2nn[nH]n2)cc1
- T/C (dose: 25.0 mg/kg/injection, schedule: Q01DX009 (ip), vehicle: Klucel (hydroxypropylcellulose) (HPC)): 100 % of control
- T/C (dose: 50.0 mg/kg/injection, schedule: Q01DX009 (ip), vehicle: Klucel (hydroxypropylcellulose) (HPC)): 100 % of control
- T/C (dose: 100.0 mg/kg/injection, schedule: Q01DX009 (ip), vehicle: Klucel (hydroxypropylcellulose) (HPC)): 118 % of control
- T/C (dose: 200.0 mg/kg/injection, schedule: Q01DX009 (ip), vehicle: Klucel (hydroxypropylcellulose) (HPC)): 100 % of control
